Legend:
[1] = molecular target: purified DHFR of the reference strain S. aureus ATCC 25923 (Staphylococcus aureus, UniProt P0A017); assay: Inhibition of purified DHFR of reference strain S. aureus ATCC 25923; format: biochemical
Source text: (§1) The inhibition of this enzyme was taken as a measurement for the antibacterial activity.

[2] = molecular target: T1, purified DHFR of the opportunistic pathogen P. carinii (Pneumocystis carinii, UniProt P16184); assay: biochemical
T1 sequence (P16184 1-206): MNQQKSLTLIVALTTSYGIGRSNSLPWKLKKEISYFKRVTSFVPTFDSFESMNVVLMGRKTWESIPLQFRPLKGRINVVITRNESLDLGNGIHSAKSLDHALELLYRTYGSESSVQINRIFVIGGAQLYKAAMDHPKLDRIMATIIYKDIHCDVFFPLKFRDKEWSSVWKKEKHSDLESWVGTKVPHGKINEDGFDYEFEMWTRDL
Source text: as §1

Sequence of purified DHFR of the reference strain S. aureus ATCC 25923 (P0A017 whole entry): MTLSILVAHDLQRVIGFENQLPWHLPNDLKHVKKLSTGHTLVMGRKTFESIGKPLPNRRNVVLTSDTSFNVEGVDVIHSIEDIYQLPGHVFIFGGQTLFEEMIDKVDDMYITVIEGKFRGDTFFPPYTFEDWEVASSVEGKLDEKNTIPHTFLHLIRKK

Row | Structure (SMILES) | IC50 [1] [µM] | IC50 [2] [µM]
1 | CCCCCC1C=Cc2c(Cc3cnc(N)nc3N)cc(OC)c(OC)c2O1 (racemic) [Example 7, (RS)-5-(7,8-dimethoxy-2-pentyl-2H-1-benzopyran-5-ylmethyl)-pyrimidine-2,4-diamine] | 0.016 | 2.8
2 | COc1c(OCCCC(=O)O)cc(Cc2cnc(N)nc2N)c2c1OCC=C2 [Example 10, 4-[5-(2,4-diamino-pyrimidin-5-ylmethyl)-8-methoxy-2H-1-benzopyran-7-yloxy]-butyric acid] | 0.005 | 0.04
3 | COc1cc(Cc2cnc(N)nc2N)c2c(c1OC)OC(CC(C)C)C=C2 (racemic) [Example 9, (RS)-5-(2-isobutyl-7,8-dimethoxy-2H-1-benzopyran-5-ylmethyl)-pyrimidine-2,4-diamine] | 0.001 | 3
4 | COc1cc(Cc2cnc(N)nc2N)c2c(c1OC)OC(CCCC(=O)O)C=C2 (racemic) [Example 6, (RS)-4-[5-(2,4-diamino-pyrimidin-5-ylmethyl)-7,8-dimethoxy-2H-1-benzopyran-2-yl]-butyric acid] | 0.005 | 0.22
5 | COc1cc(Cc2cnc(N)nc2N)c2c(c1OC)OC(C(C)C)C=C2 (racemic) [Example 8, (RS)-5-(2-isopropyl-7,8-dimethoxy-2H-1-benzopyran-5-ylmethyl)-pyrimidine-2,4-diamine] | 0.001 | 1
